Measurements as given in article PMC10291556 (Journal of Medicinal Chemistry, 2023).

Legend:
A2780cisR = test: MTT antiproliferative assay, 72 h; format: cell-based, human; settings: MTT, 72 h incubation, mean ± SD; read-out: IC50 A2780cisR
Procedure: (§1) Cells were treated with the tested compounds in a final volume of 200 μL/well. […] Calbiochem, Darmstadt, Germany) was added, and the cells were incubated for an additional 2–4 h. The medium was removed, and the insoluble formazan product was dissolved in 100 μL/well DMSO. The absorbance was read at 570 nm (vs 620 nm) using an Absorbance Reader (SUNRISE TECAN SCHOELLER). The read values were converted to the percentage of control. […] All experiments were made in triplicate.

A2780 = test: MTT antiproliferative assay, 72 h; format: cell-based, human; settings: MTT, 72 h incubation, mean ± SD; read-out: IC50 A2780
Procedure: as §1

HCT-116 = test: MTT antiproliferative assay, 72 h; format: cell-based, human; settings: MTT, 72 h incubation, mean ± SD; read-out: IC50 HCT-116
Procedure: as §1

HeLa = test: MTT antiproliferative assay, 72 h; format: cell-based, human; settings: for increase of antiproliferative activity relative to Pt(IV) complex 2: IC50, Table 1; for IC50: MTT, 72 h incubation, mean ± SD, read-out: IC50 HeLa
Procedure: as §1

MCF-7 = test: MTT antiproliferative assay, 72 h; format: cell-based, human; settings: MTT, 72 h incubation, mean ± SD; read-out: IC50 MCF-7
Procedure: as §1

MDA-MB-231 = test: MTT antiproliferative assay, 72 h; format: cell-based, human; settings: MTT, 72 h incubation, mean ± SD; read-out: IC50 MDA-MB-231
Procedure: as §1

MRC-5 = test: MTT assay in non-cancerous fibroblasts, 72 h; format: cell-based; settings: non-cancerous human fibroblasts, 72 h incubation, mean ± SD
Procedure: Cells were treated with the tested compounds in a final volume of 200 μL/well. […] Calbiochem, Darmstadt, Germany) was added, and the cells were incubated for an additional 2–4 h. The medium was removed, and the insoluble formazan product was dissolved in 100 μL/well DMSO. […] The read values were converted to the percentage of control. […] All experiments were made in triplicate.

HeLa cells [1] = test: Cellular accumulation of platinum (ICP-MS); format: cell-based, human; settings: for cellular uptake 0.1 μM/24 h: 0.1 μM complex; for cellular uptake 1 μM/6 h: 1 μM complex; for cellular uptake 10 μM/6 h: 10 μM complex; for cellular uptake relative to Pt(IV) complex 2: Table 3
Procedure: Briefly, 3 × 10^6 cells were seeded in 100 mm culture dishes and grown overnight. The cells were exposed to the tested complexes at indicated concentrations for indicated periods. […] The pellets were digested using the microwave acid (HCl) digestion system (CEM Mars). The platinum quantity taken up by the cells was determined by inductively coupled plasma mass spectrometry (ICP–MS). All experiments were performed in triplicate.

COX in HeLa cells = test: COX activity assay (kit) in treated cells; format: cell-based, human; settings: 24 h, 1× IC50,72h, vs untreated control
Procedure: The results are expressed relative to the COX activity of untreated control.
HeLa cells were seeded in 6-well plates at a density of 10^5 cells/well and incubated overnight. The cells were treated with the tested compounds at concentrations corresponding to 1× IC50. Following a 24 h treatment, the cells were lyzed with radioimmunoprecipitation assay (RIPA) buffer supplemented with proteinase inhibitors on ice for 10 min. The extracts were cleared with centrifugation (12,000g/5 min), and protein content was determined using Bradford assay. COX activity was determined with a COX Activity Assay Kit (Abcam). 6 μg of protein was used in the reaction. The experiment was set up according to the manufacturer’s instructions. The fluorescence (Ex/Em 535/587 nm) was read in a kinetic mode, and the COX inhibition was expressed as a percentage of the activity of the untreated control.

HeLa cells [2] = test: Wound healing assay; format: cell-based, human; settings: 24 h, multiples of IC50,72h
Procedure: (§2) Figure 7 (A–E) Wound healing assay. The monolayer of HeLa cells was scratched with a 10 μL tip, and a starving medium containing the tested complexes was added. The shots were taken at times 0 and 24 h. (A) Control, non-treated cells; (B) cells treated with complex 3; (C) cells treated with complex 4. […] (E) Evaluation of wound healing assay. Bars represent gap size vs. Control (100%), following a 24 h incubation with the investigated compounds. Light gray bars: complex 3; dark gray bars: complex 4; black bar: complex 2. (F) Re-adhesion assay. […] Following trypsinization, the cells were resuspended in Dulbecco’s modified Eagle medium (DMEM), counted, left to reconstitute adhesive membrane proteins for 30 min, and re-seeded at the density of 3× 10^4 cells/100 μL/well. After 30 min of incubation at 37 °C, the re-adhesion activity was determined as described in the Experimental Section. Data represents mean ± SD, n = 8; *p < 0.05, **p < 0.01, ***p < 0.001.
HeLa cells were grown close to confluence in 6-well plates in a complete medium, and then the medium was replaced with a serum-free medium [supplemented with 0.1% bovine serum albumin (BSA)], and the cells were incubated for an additional 24 h. The HeLa monolayers were scratched with a 10 μL pipet tip, and the cells were washed twice with PBS to remove peeled cells and treated with tested compounds at indicated concentrations. The scratched areas were shot immediately after the complex addition and then after 24 h with a Canon EOS 1200D camera attached to an Olympus CKX41 inverted microscope with a 10×/0.25 phase contrast objective. Digital images were taken by the QuickPHOTO MICRO 3.1 program (PROMICRA, Prague, Czech Republic) and processed with the TScratch analysis software (ETH Zürich, Switzerland). The cell’s ability to migrate into the open area was expressed as a percentage of control.

HeLa cells [3] = test: Re-adhesion assay; format: cell-based, human; settings: 10× IC50, 1 h
Procedure: as §2, with “Data represents mean ± SD, n = 8; *p < 0.05, **p < 0.01, ***p < 0.001.” left out
HeLa cells were grown in 6-well plates for 24 h. […] Following the treatment, the cells were trypsinized, washed, and resuspended in fresh serum-free medium, counted, and left at room temperature for 30 min to allow surface receptor reconstitution. […] The number of adhered cells was determined with sulforhodamine B (SRB) assay. […] The bound SRB was dissolved in 10 mM Tris base (pH 10.5), and the absorbance was recorded at 570 nm with an Absorbance Reader (SUNRISE TECAN, SCHOELLER). […]

Cc1c(C)c2c3c4c1=CC=C[N]4[Pt]([Cl])[N]3C=CC=2.NCCNC(=O)Cc1ccccc1Nc1c(Cl)cccc1Cl.N[C@H]1CCCC[C@@H]1N [complex 3, Pt(IV)56MESSenDCFCl]
IC50 (A2780cisR): 130 ± 20 nM | IC50 (A2780): 120 ± 20 nM | IC50 (HCT-116): 200 ± 30 nM | increase of antiproliferative activity relative to Pt(IV) complex 2 (HeLa): 4.5 fold | IC50 (HeLa): 600 ± 100 nM | IC50 (MCF-7): 400 ± 100 nM | IC50 (MDA-MB-231): 400 ± 100 nM | IC50 (MRC-5): 700 ± 100 nM | cellular uptake 0.1 μM/24 h (HeLa cells [1]): 3.6 ± 0.2 ng Pt/10^6 cells | cellular uptake 1 μM/6 h (HeLa cells [1]): 9.6 ± 0.8 ng Pt/10^6 cells | cellular uptake 10 μM/6 h (HeLa cells [1]): 61 ± 8 ng Pt/10^6 cells | cellular uptake relative to Pt(IV) complex 2 (HeLa cells [1]): 1.3–1.6 fold | inhibition of COX activity (COX in HeLa cells): slightly but significantly inhibited COX-2 activity | migration activity (wound closing) (HeLa cells [2]): reduced the ability of HeLa cells to close artificial wounds | re-adhesion to the growth surface (HeLa cells [3]): lower the ability of HeLa cells to re-adhere to the growth surface

Cc1c(C)c2c3c4c1=CC=C[N]4[Pt][N]3C=CC=2.NCCNC(=O)Cc1ccccc1Nc1c(Cl)cccc1Cl.NCCNC(=O)Cc1ccccc1Nc1c(Cl)cccc1Cl.N[C@H]1CCCC[C@@H]1N [complex 4, Pt^IV56MeSS(DCF)2]
IC50 (A2780cisR): 80 ± 20 nM | IC50 (A2780): 50 ± 10 nM | IC50 (HCT-116): 180 ± 50 nM | increase of antiproliferative activity relative to Pt(IV) complex 2 (HeLa): 9 fold | IC50 (HeLa): 310 ± 80 nM | IC50 (MCF-7): 330 ± 50 nM | IC50 (MDA-MB-231): 290 ± 40 nM | IC50 (MRC-5): 320 ± 80 nM | cellular uptake 0.1 μM/24 h (HeLa cells [1]): 3.9 ± 0.3 ng Pt/10^6 cells | cellular uptake 1 μM/6 h (HeLa cells [1]): 11 ± 2 ng Pt/10^6 cells | cellular uptake 10 μM/6 h (HeLa cells [1]): 82 ± 7 ng Pt/10^6 cells | cellular uptake relative to Pt(IV) complex 2 (HeLa cells [1]): 1.7–1.8 fold | inhibition of COX activity (COX in HeLa cells): slightly but significantly inhibited COX-2 activity | migration activity (wound closing) (HeLa cells [2]): reduced the ability of HeLa cells to close artificial wounds | re-adhesion to the growth surface (HeLa cells [3]): lower the ability of HeLa cells to re-adhere to the growth surface
